Experimental data published in patent US12134611B2, “Compounds and compositions for treating conditions associated with NLRP activity” (Novartis AG, priority 2018, dated 2024).

target: T1, hNLRP3 (Homo sapiens, UniProt Q96P20); test: IL-1β production in PMA-differentiated THP-1 cells stimulated with gramicidin (hTHP-1 assay); format: cell-based; conditions: read-out: NLRP3 Antagonist, hNLRP3 (THP-1, IL-1b) Normalized: GeoMean IC50
T1 construct: THP-1 cells were purchased from the American Type Culture Collection; host or cells: THP-1 cells, PMA-differentiated, stimulated with gramicidin
T1 sequence (Q96P20 whole entry): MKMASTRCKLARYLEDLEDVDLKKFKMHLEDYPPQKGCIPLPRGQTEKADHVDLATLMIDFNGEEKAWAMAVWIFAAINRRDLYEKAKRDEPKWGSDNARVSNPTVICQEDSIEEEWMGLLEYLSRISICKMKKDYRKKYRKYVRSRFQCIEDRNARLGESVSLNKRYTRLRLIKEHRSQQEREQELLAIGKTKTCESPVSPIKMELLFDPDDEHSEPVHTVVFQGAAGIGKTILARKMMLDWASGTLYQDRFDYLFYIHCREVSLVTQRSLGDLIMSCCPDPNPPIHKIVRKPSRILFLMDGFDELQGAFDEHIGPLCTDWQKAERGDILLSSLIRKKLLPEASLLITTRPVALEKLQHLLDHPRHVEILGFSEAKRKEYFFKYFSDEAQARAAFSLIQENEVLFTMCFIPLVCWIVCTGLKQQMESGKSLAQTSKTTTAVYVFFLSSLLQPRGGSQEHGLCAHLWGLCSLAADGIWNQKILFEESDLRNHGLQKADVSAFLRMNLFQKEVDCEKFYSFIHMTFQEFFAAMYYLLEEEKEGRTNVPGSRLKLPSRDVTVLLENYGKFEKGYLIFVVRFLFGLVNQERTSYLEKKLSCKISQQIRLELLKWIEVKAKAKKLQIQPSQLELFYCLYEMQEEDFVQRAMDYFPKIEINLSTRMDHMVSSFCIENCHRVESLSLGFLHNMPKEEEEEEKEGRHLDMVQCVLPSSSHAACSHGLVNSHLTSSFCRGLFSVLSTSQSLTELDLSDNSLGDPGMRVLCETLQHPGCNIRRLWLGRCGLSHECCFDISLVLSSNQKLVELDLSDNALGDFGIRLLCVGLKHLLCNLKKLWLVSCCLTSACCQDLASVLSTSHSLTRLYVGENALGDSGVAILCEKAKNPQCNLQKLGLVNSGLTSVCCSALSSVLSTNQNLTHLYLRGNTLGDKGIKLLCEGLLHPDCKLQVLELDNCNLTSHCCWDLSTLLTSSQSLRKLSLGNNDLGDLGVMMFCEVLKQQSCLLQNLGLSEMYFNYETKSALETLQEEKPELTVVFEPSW
Method: Procedure 1: IL-1β Production in PMA-Differentiated THP-1 Cells Stimulated with Gramicidin.
THP-1 cells were purchased from the American Type Culture Collection and sub-cultured according to instructions from the supplier. […] Prior to the experiment, compounds were dissolved in dimethyl sulfoxide (DMSO) to generate a 30 mM stock. […] DMSO was backfilled in the plate to achieve a final DMSO assay concentration of 0.37%. The plate was then sealed and stored at room temperature until required.
THP-1 cells were treated with PMA (Phorbol 12-myristate 13-acetate) (20 ng/ml) for 16-18 hours. On the day of the experiment the media was removed and adherent cells were detached with trypsin for 5 minutes.
Procedure 2: IL-1β Production in PMA-Differentiated THP-1 Cells Stimulated with Gramicidin.
THP-1 cells were purchased from the American Type Culture Collection and sub-cultured according to instructions from the supplier. […] Prior to the experiment THP-1 were treated with PMA (Phorbol 12-myristate 13-acetate) (20 ng/ml) for 16-18 hours. Compounds were dissolved in dimethyl sulfoxide (DMSO) to generate a 30 mM stock. On the day of the experiment the media was removed and adherent cells were detached with trypsin for 5 minutes. […] Final DMSO concentration was at 0.37%. Cells were incubated with compounds for 1 hour and then stimulated with gramicidin (5 μM) (Enzo) for 2 hours. Plates were then centrifuged at 340 g for 5 min. Cell free supernatant (40 μL) was collected using a 96-channel PlateMaster (Gilson) and the production of IL-1β was evaluated by HTRF (cisbio).
1. Experimental procedure
1.2 Compound Preparation • Prepare the 3-fold serial dilution of the compounds with DMSO in a 384-well LDV Microplate using TECAN EVO system to generate the compound source plate with 10 concentrations. Top concentration is 30 mM. FIG. 5 depicts the layout of the microplate.
FIG. 5 depicts the layout of the plates: HC: 100 μM CRID3 (MCC950)+5 μM gramicidin LC: 5 μM Gramicidin.
1.5 IL-1β Detection • 1) Homogenize the 5× diluent #5 with a vortex and add 1 volume of stock solution in 4 volumes of distilled water. • 2) Thaw 20× stock solution of anti-IL1β-Cryptate-antibody and anti-IL1β XL-antibody. […] 2. Data Analysis: • 1.

First: O=C(N=S1(=O)NCc2ccccc21)Nc1c2c(cc3c1CCC3)CCC2 (single isomer, unassigned) [Compound 130a, 1-(1,2,3,5,6,7-hexahydro-s-indacen-4-yl)-3-[(1S or 1R)-1-oxo-2,3-dihydro-1-^λ-6,2-benzothiazol-1-ylidene]urea]
Second: CN(C)Cc1ccc2c(c1)S(=O)(=NC(=O)Nc1c3c(cc4c1CCC4)CCC3)NC2 (single isomer, unassigned) [Compound 133a, (R or S)-1-(6-((dimethylamino)methyl)-1-oxido-2,3-dihydro-1l4-benzo[d]isothiazol-1-ylidene)-3-(1,2,3,5,6,7-hexahydro-s-indacen-4-yl)urea]
The IC50 of the first is higher: over 30 µM for the first, 5 to 30 µM for the second.

First: O=C1CCS(=O)(=NC(=O)Nc2c3c(cc4c2CCC4)CCC3)N1 (single isomer, unassigned) [Compound 131a, (R or S)-1-(1,2,3,5,6,7-hexahydro-s-indacen-4-yl)-3-(1-oxido-3-oxo-1l6-isothiazolidin-1-ylidene)urea]
Second: CC1(C)CS(=O)(=NC(=O)Nc2c3c(cc4c2CCC4)CCC3)NC1=O (centres unmarked) [Compound 102, 1-(4,4-dimethyl-1-oxido-3-oxo-1l6-isothiazolidin-1-ylidene)-3-(1,2,3,5,6,7-hexahydro-s-indacen-4-yl)urea]
The IC50 of the first is higher: 1 to 5 µM for the first, 0.2 to 1 µM for the second. The second is the more potent here.

First: O=C(N=S1(=O)CC2(COC2)C(=O)N1)Nc1c2c(cc3c1CCC3)CCC2 (single isomer, unassigned) [Compound 132a, (S or R)-1-(1,2,3,5,6,7-hexahydro-s-indaccn-4-yl)-3-(6-oxido-8-oxo-2-oxa-6l6-thia-7-azaspiro[3.4]octan-6-ylidene)urea]
Second: O=C(N=S1(=O)CC2(CN1)COC2)Nc1c2c(cc3c1CCC3)CCC2 (single isomer, unassigned) [Compound 139a, (S or R)-1-(1,2,3,5,6,7-hexahydro-s-indacen-4-yl)-3-(6-oxido-2-oxa-6l6-thia-7-azaspiro[3.4]octan-6-ylidene)urea]
The IC50 of the first is lower: 1 to 5 µM for the first, over 30 µM for the second. The first is the more potent here.

First: O=C(N=S1(=O)CC2(COC2)C(=O)N1)Nc1c2c(cc3c1CCC3)CCC2 (single isomer, unassigned) [Compound 132b, (R or S)-1-(1,2,3,5,6,7-hexahydro-s-indacen-4-yl)-3-(6-oxido-8-oxo-2-oxa-6l6-thia-7-azaspiro[3.4]octan-6-ylidene)urea]
Second: O=C(N=S1(=O)NC(=O)c2cccnc21)Nc1c2c(cc3c1CCC3)CCC2 (single isomer, unassigned) [Compound 223a, (S or S)-1-(1,2,3,5,6,7-hexahydro-s-indacen-4-yl)-3-(1-oxido-3-oxo-2,3-dihydro-1l4-isothiazolo[5,4-b]pyridin-1-ylidene)urea]
The IC50 of the first is higher: 5 to 30 µM for the first, 1 to 5 µM for the second. The second is the more potent here.

First: CN(C)Cc1ccc2c(c1)S(=O)(=NC(=O)Nc1c3c(cc4c1CCC4)CCC3)NC2 (single isomer, unassigned) [Compound 133b, (S or R)-1-(6-((dimethylamino)methyl)-1-oxido-2,3-dihydro-1l4-benzo[d]isothiazol-1-ylidene)-3-(1,2,3,5,6,7-hexahydro-s-indacen-4-yl)urea]
Second: O=C(N=S1(=O)NC(=O)c2ccc(Br)cc21)Nc1c2c(cc3c1CCC3)CCC2 (centres unmarked) [Compound 103, 1-(6-bromo-1-oxido-3-oxo-2,3-dihydro-1l4-benzo[d]isothiazol-1-ylidene)-3-(1,2,3,5,6,7-hexahydro-s-indacen-4-yl)urea]
The IC50 of the first is higher: over 30 µM for the first, 1 to 5 µM for the second. The second is the more potent here.

Compared with `COC(=O)c1ccc2c(c1)S(=O)(=NC(=O)Nc1c3c(cc4c1CCC4)CCC3)NC2=O` (single isomer, unassigned) [Compound 134a, methyl (R or S)-1-(((1,2,3,5,6,7-hexahydro-s-indacen-4-yl)carbamoyl)imino)-3-oxo-2,3-dihydro-1H-1l4-benzo[d]isothiazole-6-carboxylate 1-oxide], `CC(O)(CO)c1ccc2c(c1)S(=O)(=NC(=O)Nc1c3c(cc4c1CCC4)CCC3)NC2=O` (single isomer, unassigned) [Compound 208a, 1-((1R or S)-6-(1,2-dihydroxypropan-2-yl)-1-oxido-3-oxo-2,3-dihydro-1l4-benzo[d]isothiazol-1-ylidene)-3-(1,2,3,5,6,7-hexahydro-s-indacen-4-yl)urea] is lower in IC50: over 30 µM for the first, 1 to 5 µM for the second. The second is the more potent here.

Compared with `COC(=O)c1ccc2c(c1)S(=O)(=NC(=O)Nc1c3c(cc4c1CCC4)CCC3)NC2=O` (single isomer, unassigned) [Compound 134b, methyl (S or R)-1-(((1,2,3,5,6,7-hexahydro-s-indacen-4-yl)carbamoyl)imino)-3-oxo-2,3-dihydro-1H-1l4-benzo[d]isothiazole-6-carboxylate 1-oxide], `CC(O)(CO)c1ccc2c(c1)S(=O)(=NC(=O)Nc1c3c(cc4c1CCC4)CCC3)NC2=O` (single isomer, unassigned) [Compound 208b, 1-((1S or R)-6-(1,2-dihydroxypropan-2-yl)-1-oxido-3-oxo-2,3-dihydro-1l4-benzo[d]isothiazol-1-ylidene)-3-(1,2,3,5,6,7-hexahydro-s-iadacen-4-yl)urea] is lower in IC50: 5 to 30 µM for the first, 0.04 to 0.2 µM for the second.

`CC(C)(O)c1ccc2c(c1)S(=O)(=NC(=O)Nc1c3c(nc4c1CCC4)CCC3)NC2=O` (single isomer, unassigned) [Compound 136, (S or R)-1-(1,2,3,5,6,7-hexahydrodicyclopenta[b,e]pyridin-8-yl)-3-(6-(2-hydroxypropan-2-yl)-1-oxido-3-oxo-2,3-dihydro-1l4-benzo[d]isothiazol-1-ylidene)urea] and `CC(C)(O)c1ccc2c(c1)S(=O)(=NC(=O)Nc1c3c(nc4c1CCC4(C)C)CCC3)NC2=O` (single isomer, unassigned) [Compound 137, (S or R)-1-(3,3-dimethyl-1,2,3,5,6,7-hexahydrodicyclopenta[b,e]pyridin-8-yl)-3-(6-(2-hydroxypropan-2-yl)-1-oxido-3-oxo-2,3-dihydro-1l4-benzo[d]isothiazol-1-ylidene)urea] fall in the same range of IC50: 0.2 to 1 µM for the first, 0.2 to 1 µM for the second.

Compared with `Cc1c(C2CC2)nc2c(c1NC(=O)N=S1(=O)NC(=O)c3ccc(C(C)(C)O)cc31)CCC2` (single isomer, unassigned) [Compound 138, (S or R)-1-(2-cyclopropyl-3-methyl-6,7-dihydro-5H-cyclopenta[b]pyridin-4-yl)-3-(6-(2-hydroxypropan-2-yl)-1-oxido-3-oxo-2,3-dihydro-1l4-benzo[d]isothiazol-1-ylidene)urea], `CC(C)c1cc2c(c(C(C)C)c1CC(=O)N=S1(=O)NC(=O)c3ccc(C(C)(C)O)cc31)COC2` (centres unmarked) [Compound 104, 2-(4,6-diisopropyl-1,3-dihydroisobenzofuran-5-yl)-N-(6-(2-hydroxypropan-2-yl)-1-oxido-3-oxo-2,3-dihydro-1l4-benzo[d]isothiazol-1-ylidene)acetamide] is higher in IC50: 0.2 to 1 µM for the first, over 30 µM for the second. The first is the more potent here.

`O=C(N=S1(=O)NC(=O)c2ccc(-n3cccn3)cc21)Nc1c2c(cc3c1CCC3)CCC2` (single isomer, unassigned) [Compound 211a, (S or R)-1-(1,2,3,5,6,7-hexahydro-s-indacen-4-yl)-3-(1-oxido-3-oxo-6-(1H-pyrazol-1-yl)-2,3-dihyclro-1l4-benzo[d]isothiazol-1-ylidene)urea] and `O=C(N=S1(=O)NC(=O)c2cccnc21)Nc1c2c(cc3c1CCC3)CCC2` (single isomer, unassigned) [Compound 223b, (R or S)-1-(1,2,3,5,6,7-hexahydro-s-indacen-4-yl)-3-(1-oxido-3-oxo-2,3-dihydro-1l4-isothiazolo[5,4-b]pyridin-1-ylidene)urea] fall in the same range of IC50: 5 to 30 µM for the first, 5 to 30 µM for the second.

First: O=C(N=S1(=O)NC(=O)c2ccc(-n3cccn3)cc21)Nc1c2c(cc3c1CCC3)CCC2 (single isomer, unassigned) [Compound 211b, (R or S)-1-(1,2,3,5,6,7-hexahydro-s-indacen-4-yl)-3-(1-oxido-3-oxo-6-(1H-pyrazol-1-yl)-2,3-dihydro-1l4-benzo[d]isothiazol-1-ylidene)urea]
Second: O=C(N=S1(=O)CC(Cc2ccccc2)C(=O)N1)Nc1c2c(cc3c1CCC3)CCC2 (single isomer, unassigned) [Compound 249a, 1-((1R,4S or 4R)-4-benzyl-1-oxido-3-oxo-1l6-isothiazolidin-1-ylidene)-3-(1,2,3,5,6,7-hexahydro-s-indacen-4-yl)urea]
The IC50 of the first is higher: over 30 µM for the first, 0.2 to 1 µM for the second.

Work on `O=C1CC(Cc2ccccc2)S(=O)(=NC(=O)Nc2c3c(cc4c2CCC4)CCC3)N1` (centres unmarked) [Compound 101, 1-(5-benzyl-1-oxido-3-oxo-1l6-isothiazolidin-1-ylidene)-3-(1,2,3,5,6,7-hexahydro-s-indacen-4-yl)urea] yielded an IC50 of 1 to 5 µM.
